According to publication PMC4476799, “Englerin A Agonizes the TRPC4/C5 Cation Channels to Inhibit Tumor Cell Line Proliferation” (PLoS ONE, 2015):
Read-outs that look alike come from different tables or passages of the source.

Test system: cancer cell lines from the cancer cell line encyclopedia (CCLE)
Assay: Cell line profiling (CLiP) proliferation experiment
Type: cell-based
Parameters: key to Compound Activity (1-inactive;2-active): 1-inactive; 2-active; ACTIVITY_AREA: scale not given here; AMAX: unit not given here
Details: for EC50: read-out: Inflection Point; for IC50: read-out: Crossing Point
Experimental: Compound profiling experiment and data analysis was performed as previously described. Data was imported and plotted using the Tibco Spotfire DXP application. Lines were categorized as sensitive, intermediate and refractory as follows: Amax<-40 & Inflection Point <2 ~ Sensitive, Amax>-20 & Inflection Point >10 ~ Refractory, all else were called Intermediate. Cancer Cell line HG-U133 Plus 2 data was processed and normalized as described. […] Five sets of refractory cell lines were generated from the pool of refractory cell lines trying to match the lineage composition of the set of sensitive cell lines. The limma package was used as previously described to perform the statistical comparison.

[1] = cell line A-204, soft_tissue, NS
[2] = cell line BDCM, haematopoietic_and_lymphoid_tissue, acute_lymphoblastic_B_cell_leukaemia
[3] = cell line BHY, upper_aerodigestive_tract, squamous_cell_carcinoma
[4] = cell line BICR 6, upper_aerodigestive_tract, squamous_cell_carcinoma
[5] = cell line BICR 22, upper_aerodigestive_tract, squamous_cell_carcinoma
[6] = cell line CAL-29, urinary_tract, transitional_cell_carcinoma
[7] = cell line DOHH-2, haematopoietic_and_lymphoid_tissue
[8] = cell line EB1, haematopoietic_and_lymphoid_tissue
[9] = cell line EB2, haematopoietic_and_lymphoid_tissue
[10] = cell line EM-2 (haematopoietic_and_lymphoid_tissue, blast_phase_chronic_myeloid_leukaemia)
[11] = cell line EM-2, haematopoietic_and_lymphoid_tissue
[12] = cell line EOL-1, haematopoietic_and_lymphoid_tissue
[13] = cell line FaDu, upper_aerodigestive_tract

CC(C)[C@@]12C[C@@H](O)[C@@](C)(O1)[C@@H]1CC[C@@H](C)[C@H]1[C@@H]2OC(=O)/C=C/c1ccccc1 [Englerin B]
EC50 (cell line A4/Fuk, haematopoietic_and_lymphoid_tissue, diffuse_large_B_cell_lymphoma): 18.1 µM | ACTIVITY_AREA [1]: 22.22 | AMAX [1]: -45.81 | RESPONSE [1]: INTERMEDIATE | IC50 (cell line AGS, stomach, adenocarcinoma): 5.71 µM | IC50 [2]: 16.9 µM | EC50 [2]: 16.9 µM | IC50 [3]: 23.5 µM | EC50 [3]: 9.33 µM | IC50 [4]: 23 µM | EC50 [4]: 23 µM | IC50 (cell line BICR 16, upper_aerodigestive_tract, squamous_cell_carcinoma): 9.26 µM | IC50 [5]: 18.8 µM | EC50 [5]: 15 µM | IC50 (cell line C32, skin, NS): > 30 µM | IC50 [6]: 15.9 µM | EC50 [6]: 13.1 µM | Compound Activity (1-inactive;2-active) (cell line COLO-800 (skin, NS)): 1 | Compound Activity (1-inactive;2-active) (cell line COV504 (ovary, NS)): 1 | Compound Activity (1-inactive;2-active) (cell line Caov-3 (ovary, adenocarcinoma)): 1 | Compound Activity (1-inactive;2-active) (cell line DBTRG-05MG (central_nervous_system, astrocytoma_Grade_IV)): 1 | Compound Activity (1-inactive;2-active) (cell line DLD-1 (large_intestine, adenocarcinoma)): 1 | ACTIVITY_AREA (cell line DMS 79, lung): 49.26 | AMAX (cell line DMS 79, lung): -10.4 | RESPONSE (cell line DMS 79, lung): REFRACTORY | ACTIVITY_AREA [7]: 33.67 | AMAX [7]: -98.82 | RESPONSE [7]: INTERMEDIATE | Compound Activity (1-inactive;2-active) (cell line DU 145 (prostate, NS)): 1 | ACTIVITY_AREA (cell line DU 145, prostate): 176.13 | AMAX (cell line DU 145, prostate): -54.93 | RESPONSE (cell line DU 145, prostate): INTERMEDIATE | Compound Activity (1-inactive;2-active) (cell line DV-90 (lung, adenocarcinoma)): 1 | ACTIVITY_AREA (cell line DV-90, lung): 23.59 | AMAX (cell line DV-90, lung): -71.93 | RESPONSE (cell line DV-90, lung): INTERMEDIATE | ACTIVITY_AREA [8]: 13.39 | AMAX [8]: -56.14 | RESPONSE [8]: INTERMEDIATE | IC50 [8]: 28.7 µM | ACTIVITY_AREA [9]: 28.45 | AMAX [9]: -57.08 | RESPONSE [9]: INTERMEDIATE | IC50 [9]: 25.8 µM | ACTIVITY_AREA (cell line EBC-1, lung): 56.14 | AMAX (cell line EBC-1, lung): -53.25 | RESPONSE (cell line EBC-1, lung): INTERMEDIATE | Compound Activity (1-inactive;2-active) (cell line EFM-19 (breast, ductal_carcinoma)): 1 | ACTIVITY_AREA (cell line EFM-19, breast): 28.98 | AMAX (cell line EFM-19, breast): -31.96 | RESPONSE (cell line EFM-19, breast): INTERMEDIATE | ACTIVITY_AREA (cell line EFM-192A, breast): 78.14 | AMAX (cell line EFM-192A, breast): -57.28 | RESPONSE (cell line EFM-192A, breast): INTERMEDIATE | Compound Activity (1-inactive;2-active) [10]: 1 | IC50 [10]: > 30 µM | ACTIVITY_AREA [11]: 14.33 | AMAX [11]: -44.27 | RESPONSE [11]: INTERMEDIATE | IC50 [11]: > 30 µM | ACTIVITY_AREA (cell line EN, endometrium): 5.5 | AMAX (cell line EN, endometrium): -23.22 | RESPONSE (cell line EN, endometrium): INTERMEDIATE | IC50 (cell line EN, endometrium): > 30 µM | IC50 (cell line EN): > 30 µM | ACTIVITY_AREA [12]: 60.59 | AMAX [12]: -94.78 | RESPONSE [12]: INTERMEDIATE | ACTIVITY_AREA (cell line ES-2, ovary): 44.96 | AMAX (cell line ES-2, ovary): -44.71 | RESPONSE (cell line ES-2, ovary): INTERMEDIATE | IC50 (cell line ES-2, ovary): > 30 µM | IC50 (cell line ES-2): > 30 µM | ACTIVITY_AREA (cell line ESS-1, endometrium): 41.09 | AMAX (cell line ESS-1, endometrium): -72.67 | RESPONSE (cell line ESS-1, endometrium): INTERMEDIATE | ACTIVITY_AREA (cell line FU-OV-1, ovary): 158.99 | AMAX (cell line FU-OV-1, ovary): -69.93 | RESPONSE (cell line FU-OV-1, ovary): INTERMEDIATE | IC50 (cell line FU-OV-1, ovary): 3.19 µM | ACTIVITY_AREA [13]: 21.14 | AMAX [13]: -61.31 | RESPONSE [13]: INTERMEDIATE | ACTIVITY_AREA (cell line G-361, skin): 55.99 | AMAX (cell line G-361, skin): -32.98 | RESPONSE (cell line G-361, skin): INTERMEDIATE | ACTIVITY_AREA (cell line G-401, soft_tissue): 47.08 | AMAX (cell line G-401, soft_tissue): -74.97 | RESPONSE (cell line G-401, soft_tissue): INTERMEDIATE | ACTIVITY_AREA (cell line G-402, soft_tissue): 90.01 | AMAX (cell line G-402, soft_tissue): -70.25 | RESPONSE (cell line G-402, soft_tissue): INTERMEDIATE
